In patent publication US10647713B2 (Nimbus Lakshmi, Inc., priority 2016, dated 2020):

biological target: human TYK2 (JH2domain-pseudokinase) (Homo sapiens (Human), UniProt P29597); test: TYK2 JH2 Domain Binding Assay (KINOMEscan, DiscoveRx); conditions: 11-point dilution, duplicate
Outline: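 Kd from duplicate 11-point 3-fold dilutions starting at 30,000 nM, fitted by Hill equation with slope fixed at −1. Compounds (final 0.9% DMSO) displace DNA-tagged HEK293-expressed TYK2 JH2 fusion (<0.1 nM) from ligand-coated beads over 1 h at room temperature; eluted kinase read by qPCR.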

Chain of human TYK2 (JH2domain-pseudokinase) (P29597 556-888): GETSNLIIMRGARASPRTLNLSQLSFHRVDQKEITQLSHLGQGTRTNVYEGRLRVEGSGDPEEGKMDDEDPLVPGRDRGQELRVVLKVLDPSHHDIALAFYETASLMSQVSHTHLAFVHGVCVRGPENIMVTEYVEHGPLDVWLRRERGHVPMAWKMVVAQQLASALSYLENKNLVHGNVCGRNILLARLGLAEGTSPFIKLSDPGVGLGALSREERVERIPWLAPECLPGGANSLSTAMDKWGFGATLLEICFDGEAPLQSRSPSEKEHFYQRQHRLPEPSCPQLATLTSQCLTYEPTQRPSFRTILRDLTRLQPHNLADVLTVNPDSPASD

Row | Kd [nM] | SMILES
1 | 0.1 to 0.5 | CS(=O)(=O)c1ccccc1Nc1cc(Nc2ccc3c(n2)C(F)(F)CC3)nc2[nH]c(C(F)F)nc12 [I-617, N5-(7,7-difluoro-6,7-dihydro-5H-cyclopenta[b]pyridin-2-yl)-2-(difluoromethyl)-N7-(2-(methylsulfonyl)phenyl)-3H-imidazo[4,5-b]pyridine-5,7-diamine]
2 | < 0.1 | Cc1nc2c(Nc3ccccc3S(C)(=O)=O)cc(Nc3ccc4c(n3)C(F)(F)CC4)nc2[nH]1 [I-618, N5-(7,7-difluoro-6,7-dihydro-5H-cyclopenta[b]pyridin-2-yl)-2-methyl-N7-(2-(methylsulfonyl)phenyl)-3H-imidazo[4,5-b]pyridine-5,7-diamine]
3 | < 0.1 | COCCOc1ccc(Nc2cc(Nc3ccccc3S(C)(=O)=O)c3nc(C(F)F)[nH]c3n2)nc1C#N [I-619, 6-((2-(difluoromethyl)-7-((2-(methylsulfonyl)phenyl)amino)-3H-imidazo[4,5-b]pyridin-5-yl)amino)-3-(2-methoxyethoxy)picolinonitrile]
4 | < 0.1 | COCCOc1ccc(Nc2cc(Nc3ccccc3S(C)(=O)=O)c3nc(C)[nH]c3n2)nc1C#N [I-620, 3-(2-methoxyethoxy)-6-((2-methyl-7-((2-(methylsulfonyl)phenyl)amino)-3H-imidazo[4,5-b]pyridin-5-yl)amino)picolinonitrile]
5 | 0.1 to 0.5 | COCCOc1ccc(Nc2cc(Nc3ccc(F)cc3S(C)(=O)=O)c3nc(C(F)F)[nH]c3n2)nc1C#N [I-621, 6-((2-(difluoromethyl)-7-((4-fluoro-2-(methylsulfonyl)phenyl)amino)-3H-imidazo[4,5-b]pyridin-5-yl)amino)-3-(2-methoxyethoxy)picolinonitrile]
6 | < 0.1 | COCCOc1ccc(Nc2cc(Nc3ccc(F)cc3S(C)(=O)=O)c3nc(C)[nH]c3n2)nc1C#N [I-622, 6-((7-((4-fluoro-2-(methylsulfonyl)phenyl)amino)-2-methyl-3H-imidazo[4,5-b]pyridin-5-yl)amino)-3-(2-methoxyethoxy)picolinonitrile]
7 | < 0.1 | CS(=O)(=O)c1ccccc1Nc1cc(Nc2ccc(OC3CCOCC3)c(C#N)n2)nc2[nH]c(C(F)F)nc12 [I-623, 6-((2-(difluoromethyl)-7-((2-(methylsulfonyl)phenyl)amino)-3H-imidazo[4,5-b]pyridin-5-yl)amino)-3-((tetrahydro-2H-pyran-4-yl)oxy)picolinonitrile]
8 | < 0.1 | Cc1nc2c(Nc3ccccc3S(C)(=O)=O)cc(Nc3ccc(OC4CCOCC4)c(C#N)n3)nc2[nH]1 [I-624, 6-((2-methyl-7-((2-(methylsulfonyl)phenyl)amino)-3H-imidazo[4,5-b]pyridin-5-yl)amino)-3-((tetrahydro-2H-pyran-4-yl)oxy)picolinonitrile]
9 | 0.1 to 0.5 | CS(=O)(=O)c1cc(F)ccc1Nc1cc(Nc2ccc(OC3CCOCC3)c(C#N)n2)nc2[nH]c(C(F)F)nc12 [I-625, 6-((2-(difluoromethyl)-7-((4-fluoro-2-(methylsulfonyl)phenyl)amino)-3H-imidazo[4,5-b]pyridin-5-yl)amino)-3-((tetrahydro-2H-pyran-4-yl)oxy)picolinonitrile]
10 | < 0.1 | Cc1nc2c(Nc3ccc(F)cc3S(C)(=O)=O)cc(Nc3ccc(OC4CCOCC4)c(C#N)n3)nc2[nH]1 [I-626, 6-((7-((4-fluoro-2-(methylsulfonyl)phenyl)amino)-2-methyl-3H-imidazo[4,5-b]pyridin-5-yl)amino)-3-((tetrahydro-2H-pyran-4-yl)oxy)picolinonitrile]
11 | 1 to 10 | COc1c(Nc2cc(Nc3cccc(C(F)(F)F)n3)nc3[nH]c(C)nc23)cccc1-c1ncnn1C [I-627, N7-(2-methoxy-3-(1-methyl-1H-1,2,4-triazol-5-yl)phenyl)-2-methyl-N5-(6-(trifluoromethyl)pyridin-2-yl)-3H-imidazo[4,5-b]pyridine-5,7-diamine]
12 | 0.5 to 1 | COc1c(Nc2cc(Nc3ccc4c(n3)C(F)(F)CC4)nc3[nH]c(C)nc23)cccc1-c1ncnn1C [I-628, N5-(7,7-difluoro-6,7-dihydro-5H-cyclopenta[b]pyridin-2-yl)-N7-(2-methoxy-3-(1-methyl-1H-1,2,4-triazol-5-yl)phenyl)-2-methyl-3H-imidazo[4,5-b]pyridine-5,7-diamine]
13 | 0.5 to 1 | COc1c(Nc2cc(Nc3ccc4c(n3)C(F)(F)CC4)nc3[nH]c(C)nc23)cccc1-c1cnn(C)n1 [I-629, N5-(7,7-difluoro-6,7-dihydro-5H-cyclopenta[b]pyridin-2-yl)-N7-(2-methoxy-3-(2-methyl-2H-1,2,3-triazol-4-yl)phenyl)-2-methyl-3H-imidazo[4,5-b]pyridine-5,7-diamine]
14 | < 0.1 | C#Cc1cccc(Nc2cc(Nc3ccc(F)cc3S(C)(=O)=O)c3nc(C)[nH]c3n2)n1 [I-630, N5-(6-ethynylpyridin-2-yl)-N7-(4-fluoro-2-(methylsulfonyl)phenyl)-2-methyl-3H-imidazo[4,5-b]pyridine-5,7-diamine]
15 | < 0.1 | CN=S(C)(=O)c1cc(-c2cnn(C)c2C)ccc1Nc1cc(NC(=O)C2CC2)nc2[nH]c(C(F)F)nc12 (stereo not drawn) [I-631, N-(2-(difluoromethyl)-7-((4-(1,5-dimethyl-1H-pyrazol-4-yl)-2-(N,S-dimethylsulfonimidoyl)phenyl)amino)-3H-imidazo[4,5-b]pyridin-5-yl)cyclopropanecarboxamide]
16 | 0.1 to 0.5 | CN=S(C)(=O)c1cc(-c2ccn(C)n2)ccc1Nc1cc(NC(=O)C2CC2)nc2[nH]c(C(F)F)nc12 (stereo not drawn) [I-632]
17 | 0.1 to 0.5 | CS(=O)(=O)c1cc(F)ccc1Nc1cc(Nc2cc3c(nn2)CCC3)nc2[nH]c(C(F)F)nc12 [I-633]

Row | Kd [nM] | SMILES
18 | 0.1 to 0.5 | CN=S(C)(=O)c1cc(-c2nc(COC)c(C)s2)ccc1Nc1cc(NC(=O)C2CC2)nc2[nH]c(C(F)F)nc12 (stereo not drawn) [I-634]
19 | 0.1 to 0.5 | COCc1ccc(Nc2cc(Nc3ccc(F)cc3S(C)(=O)=O)c3nc(C(F)F)[nH]c3n2)nn1 [I-635]
20 | 0.1 to 0.5 | COCc1ccc(Nc2cc(Nc3ccc(F)cc3S(C)(=O)=O)c3nc(C)[nH]c3n2)nn1 [I-636]
21 | < 0.1 | CN=[S@@](C)(=O)c1cc(-c2cnn(C)c2C)ccc1Nc1cc(NC(=O)C2CC2)nc2[nH]c(C(F)F)nc12 [I-637]
22 | 0.1 to 0.5 | CN=[S@](C)(=O)c1cc(-c2cnn(C)c2C)ccc1Nc1cc(NC(=O)C2CC2)nc2[nH]c(C(F)F)nc12 [I-638]
23 | < 0.1 | Cc1nc2c(Nc3ccc(F)cc3S(C)(=O)=O)cc(Nc3cc4c(nn3)CCC4)nc2[nH]1 [I-639]
24 | 0.1 to 0.5 | CN=S(C)(=O)c1cc(-c2ccn(C)n2)ccc1Nc1cc(NC(=O)C2CC2)nc2[nH]c(C)nc12 (stereo not drawn) [I-640]
25 | < 0.1 | CN=S(C)(=O)c1cc(-c2nn(C)cc2C)ccc1Nc1cc(NC(=O)C2CC2)nc2[nH]c(C(F)F)nc12 (stereo not drawn) [I-641]
26 | < 0.1 | Cc1cc(Nc2cc(Nc3ccc(C4CCC(C)(C)CO4)cc3S(C)(=O)=O)c3nc(C)[nH]c3n2)nc(C)n1 (stereo not drawn) [I-642]
27 | 0.1 to 0.5 | CS(=O)(=O)c1cc(F)ccc1Nc1cc(Nc2ccc3c(n2)CCOC3)nc2[nH]c(C(F)F)nc12 [I-643]
28 | 0.1 to 0.5 | Cc1nc2c(Nc3ccc(F)cc3S(C)(=O)=O)cc(Nc3ccc4c(n3)CCOC4)nc2[nH]1 [I-644]
29 | 1 to 10 | COc1c(Nc2cc(Nc3ccc4c(n3)CCOC4)nc3[nH]c(C(F)F)nc23)cccc1-c1ncnn1C [I-645]
30 | 0.5 to 1 | COc1c(Nc2cc(Nc3ccc4c(n3)CCOC4)nc3[nH]c(C(F)F)nc23)cccc1-c1cnn(C)n1 [I-646]
31 | 0.5 to 1 | COc1c(Nc2cc(Nc3cc4c(nn3)CCC4)nc3[nH]c(C(F)F)nc23)cccc1-c1ncnn1C [I-647]
32 | 0.1 to 0.5 | COc1c(Nc2cc(Nc3cc4c(nn3)CCC4)nc3[nH]c(C(F)F)nc23)cccc1-c1cnn(C)n1 [I-648]
33 | 1 to 10 | CN=[S@@](C)(=O)c1cc(-c2nc(COC)c(C)s2)ccc1Nc1cc(NC(=O)C2CC2)nc2[nH]c(C(F)F)nc12 [I-649]
34 | 0.1 to 0.5 | CN=[S@](C)(=O)c1cc(-c2nc(COC)c(C)s2)ccc1Nc1cc(NC(=O)C2CC2)nc2[nH]c(C(F)F)nc12 [I-650]

Row | SMILES | Kd [nM]
35 | Cc1nc2c(Nc3ccc([C@@H]4CCC(C)(C)CO4)cc3S(C)(=O)=O)cc(Nc3cnc(C)c(C)n3)nc2[nH]1 [I-610, (S)—N5-(5,6-dimethylpyrazin-2-yl)-N7-(4-(5,5-dimethyltetrahydro-2H-pyran-2-yl)-2-(methylsulfonyl)phenyl)-2-methyl-3H-imidazo[4,5-b]pyridine-5,7-diamine] | 1 to 10
36 | Cc1nc2c(Nc3ccc([C@@H]4COCCO4)cc3S(C)(=O)=O)cc(NC(=O)C3CC3)nc2[nH]1 [I-611, (R)—N-(7-((4-(1,4-dioxan-2-yl)-2-(methylsulfonyl)phenyl)amino)-2-methyl-3H-imidazo[4,5-b]pyridin-5-yl)cyclopropanecarboxamide] | 0.1 to 0.5
37 | Cc1nc2c(Nc3ccc([C@H]4COCCO4)cc3S(C)(=O)=O)cc(NC(=O)C3CC3)nc2[nH]1 [I-612, (S)—N-(7-((4-(1,4-dioxan-2-yl)-2-(methylsulfonyl)phenyl)amino)-2-methyl-3H-imidazo[4,5-b]pyridin-5-yl)cyclopropanecarboxamide] | 0.1 to 0.5
38 | Cc1nc2c(Nc3ccc([C@H]4CCC(F)(F)CO4)cc3S(C)(=O)=O)cc(NC(=O)C3CC3)nc2[nH]1 [I-615, (R)—N-(7-((4-(5,5-difluorotetrahydro-2H-pyran-2-yl)-2-(methylsulfonyl)phenyl)amino)-2-methyl-3H-imidazo[4,5-b]pyridin-5-yl)cyclopropanecarboxamide] | 0.5 to 1
39 | Cc1nc2c(Nc3ccc([C@@H]4CCC(F)(F)CO4)cc3S(C)(=O)=O)cc(NC(=O)C3CC3)nc2[nH]1 [I-616, (S)—N-(7-((4-(5,5-difluorotetrahydro-2H-pyran-2-yl)-2-(methylsulfonyl)phenyl)amino)-2-methyl-3H-imidazo[4,5-b]pyridin-5-yl)cyclopropanecarboxamide] | 0.1 to 0.5
